This is an account of results in patent publication US7767716B2, “Acyl hydrazines as kinase inhibitors, in particular for SGK” (Merck Patent GmbH, priority 2005, dated 2010).

With `O=C(Cc1cccc(O)c1)NNC(=O)c1ccc(O)c(Cl)c1` [compound 77], the melting point lay within 230 to 231 °C.

As to `Nc1cc(C(=O)NNC(=O)Cc2cccc(O)c2)ccc1O` [compound 78, N′-[2-(3-hydroxyphenyl)acetyl]-3-amino-4-hydroxybenzohydrazide], the melting point is 264 to 265 °C.

On to `COc1cc(O)cc(Cl)c1C(=O)NNC(=O)Cc1cccc(O)c1` [compound 79], for which the melting point lay within 105 to 106 °C.

The compound `O=C(Cc1cccc(O)c1)NNC(=O)c1cc(Cl)c(O)cc1O` [compound 80] registered a melting point of 269 to 270 °C.

For the compound `O=C(Cc1cccc(O)c1)NNC(=O)c1ccc(O)c(Cl)c1O` [compound 81], the melting point was in the range of 252 to 253 °C.

As to `Cc1c(O)ccc(C(=O)NNC(=O)Cc2cccc(O)c2)c1C` [compound 82], the melting point turned out to be 251 °C.

For `CCCCCc1cc(O)cc(O)c1C(=O)NNC(=O)Cc1cccc(O)c1` [compound 83], the melting point is 230 °C.

In the case of `CCc1c(C(=O)NNC(=O)Cc2cccc(O)c2)ccc(O)c1Cl` [compound 84], the melting point came out at 259 °C.

`NC(=O)c1cc(C(=O)NNC(=O)Cc2cccc(O)c2)c(O)cc1O` [compound 85] displayed a melting point of 260 to 261 °C.

In turn, `N#Cc1cc(C(=O)NNC(=O)Cc2cccc(O)c2)c(O)cc1O` [compound 86] gave a melting point of 258 °C.

Compound `Cc1cc(C(=O)NNC(=O)Cc2cccc(O)c2)c(O)cc1O` [compound 87] gave a melting point of 240 °C.

`O=C(Cc1cccc(O)c1)NNC(=O)c1cc(Cl)c(O)cc1C(F)(F)F` [compound 88] had a melting point of 200 to 202 °C.
